Patent US9493420B2, “Quinoline derivatives and uses thereof” (Portland State University, priority 2005, dated 2016)
Each block holds one molecule with its values, some of them ahead of it.

Assays:
[1] = system: D6 (CQ^S) P. falciparum strain; assay: In vitro fluorescence (Sybr Green I) growth inhibition assay, D6 strain; type: cell-based; conditions: Plasmodium falciparum, D6; Table 13; growth inhibition; read-out: IC50 (nM) D6 (CQ^S)
Text: (§1) One exemplary method for measuring inhibitory effects of RCQ compound in vitro has been reported by Smilkstein et al. (Antimicrob. Agents Chemother., 48(5):1803-1806, 2004). This method employs fluorescent detection of the level of parasitemia in cultured red blood cells and can be automated for high-throughput screening of antimalarial RCQs. This exemplary method allows the inhibitory agent (such as a RCQ) to be in contact with the parasite for an entire developmental cycle without purine starvation, which is in contrast to the traditional ^3H-hypoxanthine method (Desjardins et al., Antimicrob. Agents Chemother., 16(6):710-718, 1979). Briefly, to perform the Smilkstein et al. method, an initial parasitemia of approximately 0.2% is attained by adding uninfected red blood cells (RBCs) to a stock culture of Plasmodium sp.-infected RBCs. […] After a period of incubation (such as about 72 hours), a sufficient amount (e.g., 100 μL) of a fluorescent DNA binding dye-detergent mixture (e.g., Sybr Green I dye-detergent mixture) to lyse cells and bind to DNA is added to the reactions. Because uninfected RBCs have no DNA, only parasite DNA (in infected RBCs) is available for binding to the fluorescent dye (e.g., Sybr Green I). Samples are then incubated in the dark for a period of time (e.g., one hour), followed by measurement of levels of fluorescence. For Sybr Green I, excitation and emission wavelength are 485 and 530 nm, respectively. Fluorescence readings, which represent the amount of parasite DNA in the sample, can be plotted against the Log [drug] and fit to a curve by nonlinear regression to obtain the IC50 value for the tested compound.
(§2) An in vitro fluorescence assay for determining IC50 of antimalarial drugs was performed as previously described by Smilkstein et al. (Antimicrob. Agents Chemother., 48(5):1803-1806, 2004). This relatively low-cost procedure can be automated for high-throughput screening of the antimalarial activities of RCQs described herein. Advantageous, this method also allows the tested agent (e.g, a RCQ) to be in contact with the parasite for an entire developmental cycle without purine starvation (which occurs with the commonly used ^3H-hypoxanthine method; see, e.g., Desjardins et al., Antimicrob. Agents Chemother., 16, (6):[…], 1979).
(§3) Briefly, an initial parasitemia of approximately 0.2% was attained by addition of uninfected red blood cells to a stock culture of cells infected with Dd2 (CQ^R) or D6 (CQ^S) P. falciparum strains. A 10 mM RCQ_02 solution (in DMSO) was prepared. RCQ_02 (at a final concentration from 10^−11 to 10^−4 M) and infected red blood cells (at a final concentration of 2% (v/v)) were mixed in 100 μL samples in individual wells of a 96-well plate. Each sample was prepared in triplicate. A triplicate set of reactions containing CQ (instead of RCQ_02) was included as a control. After a 72 hour incubation period, Sybr Green I dye-detergent mixture (100 μL) was added to each reaction. The samples were further incubated for an hour in the dark, and then placed in a 96-well fluorescence plate reader (Gemini-EM, […]) and analyzed with excitation and emission wavelength bands at 485 and 530 nm, respectively. Fluorescence readings were plotted against the Log [drug], and curve fitting performed by nonlinear regression to find the IC50 value.

[2] = system: Dd2 (CQ^R) P. falciparum strain; assay: In vitro fluorescence (Sybr Green I) growth inhibition assay, Dd2 strain; type: cell-based; conditions: Plasmodium falciparum, DD2; Table 13; growth inhibition; read-out: IC50 (nM) Dd2 (CQ^R)
Text: as §1, §2, §3

[3] = system: mitogen-induced murine spleen lymphocytes; type: cell-based; conditions: mouse spleen lymphocytes; for Cytotoxicity: LC50, 72 hours + 24 hours resazurin; for cytotoxicity values: Table 14
Procedure: Mouse spleen lymphocytes were isolated from C57B1/6J mice by teasing tissues on a metallic sieve screen. […] Two hundred (200) μl isolated cells were then seeded in separate wells of a 96-well flat-bottom tissue culture plate at a density of 2×10^5 cells per well. […] After 72 hours incubation in a humidified atmosphere at 37° C. and 5% CO2, a solution of resazurin PBS was added to a final concentration 10 μM, and the plates were returned to the incubator for another 24 hours. Resazurin is a substrate which changes color in response to metabolic activity (such as, living cells). […] LC50 values were determined from plots of florescence versus drug concentration using non-linear regression by Prism software.

P. falciparum strain D6 = conditions: cited from earlier work; also: key: S = sensitive; R = resistant; S/R = intermediate level of resistance
[4] = system: P. falciparum strain FCR3; conditions: cited from earlier work; also: key: S = sensitive; R = resistant; S/R = intermediate level of resistance
P. falciparum strain W2 = conditions: cited from earlier work; also: key: S = sensitive; R = resistant; S/R = intermediate level of resistance
P. falciparum strain Dd2 = conditions: cited from earlier work; also: key: S = sensitive; R = resistant; S/R = intermediate level of resistance
[5] = system: P. falciparum strain TM91C235; conditions: cited from earlier work; also: key: S = sensitive; R = resistant; S/R = intermediate level of resistance
[6] = system: W2 (CQ^R) P. falciparum strain; assay: In vitro fluorescence (Sybr Green I) growth inhibition assay, W2 strain; type: cell-based; conditions: Plasmodium falciparum, W2; Table 13; growth inhibition; read-out: IC50 (nM) W2 (CQ^R)
[7] = target: T1, recombinant human serotonin (hSERT) transporter (Homo sapiens, UniProt P31645); assay: Inhibition of [3H]neurotransmitter uptake, hSERT; type: cell-based
T1 construct: expressed in transfected cells; host or cells: HEK cells expressing hSERT
T1 sequence (P31645 whole entry): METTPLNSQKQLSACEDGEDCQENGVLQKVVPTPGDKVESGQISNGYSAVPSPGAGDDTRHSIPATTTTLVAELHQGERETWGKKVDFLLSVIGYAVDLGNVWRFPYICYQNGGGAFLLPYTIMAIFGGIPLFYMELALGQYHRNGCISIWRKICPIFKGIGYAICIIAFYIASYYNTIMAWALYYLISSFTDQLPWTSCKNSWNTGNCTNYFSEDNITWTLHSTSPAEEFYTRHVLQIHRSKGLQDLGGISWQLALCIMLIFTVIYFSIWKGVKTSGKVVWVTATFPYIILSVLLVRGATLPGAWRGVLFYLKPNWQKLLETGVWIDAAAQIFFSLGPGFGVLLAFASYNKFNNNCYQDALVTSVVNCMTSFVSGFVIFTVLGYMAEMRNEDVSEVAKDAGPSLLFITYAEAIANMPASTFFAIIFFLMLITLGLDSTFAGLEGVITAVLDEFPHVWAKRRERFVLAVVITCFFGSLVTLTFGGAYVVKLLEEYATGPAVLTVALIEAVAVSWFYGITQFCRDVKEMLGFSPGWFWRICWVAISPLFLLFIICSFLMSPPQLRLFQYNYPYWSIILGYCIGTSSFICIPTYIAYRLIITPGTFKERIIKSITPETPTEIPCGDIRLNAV
Procedure: (§4) Selected RCQs were tested for inhibition of [^3H]neurotransmitter uptake by the recombinant human serotonin (hSERT), dopamine (HEK-hDAT), and norepinephrine (hNET) transporters by a modification of the method of Eshleman et al. (J. Pharmacol. Exp. Ther., 289(2):877-885, 1999). HEK-hDAT, hSERT, and -hNET expressing cells were grown on tissue culture dishes. After removing the medium and washing the plates with Ca^2+-, Mg^2+-free phosphate buffered saline (PBS), fresh medium was added and the plates were placed in a 25° C. water bath for 5 minutes. Cells were gently lifted from the plates and cell clusters separated by trituration. 50 μL aliquots of the suspended cells were added to assay tubes containing drugs and Krebs-HEPES assay buffer in a final volume of 0.5 mL.
(§5) Competition experiments were conducted in triplicate. After a 10 minute preincubation period at 25° C., [^3H]neurotransmitter (20 nM final concentration; [^3H]DA, [^3H]5-HT, or [^3H]NE) were added, and the mixtures incubated for 10 minutes. Reactions were terminated by filtration through Wallac filtermat A filters (presoaked in 0.05% polyethylenimine), using a Tomtec cell harvester. Scintillation fluid was added to each filtered spot, and radioactivity remaining on the filters determined using a Wallac 1205 Betaplate scintillation counter.
(§6) Specific uptake was defined as the difference in uptake observed in the absence and presence of 5 μM mazindol (hDAT and hNET) or 5 μM imipramine (hSERT). Inhibition of uptake was determined by non-linear regression using Prism software.

[8] = target: T2, recombinant human dopamine (HEK-hDAT) transporter (Homo sapiens, UniProt Q01959); assay: Inhibition of [3H]neurotransmitter uptake, hDAT; type: cell-based
T2 construct: expressed in transfected cells; host or cells: HEK cells expressing hDAT (HEK-hDAT)
T2 sequence (Q01959 whole entry): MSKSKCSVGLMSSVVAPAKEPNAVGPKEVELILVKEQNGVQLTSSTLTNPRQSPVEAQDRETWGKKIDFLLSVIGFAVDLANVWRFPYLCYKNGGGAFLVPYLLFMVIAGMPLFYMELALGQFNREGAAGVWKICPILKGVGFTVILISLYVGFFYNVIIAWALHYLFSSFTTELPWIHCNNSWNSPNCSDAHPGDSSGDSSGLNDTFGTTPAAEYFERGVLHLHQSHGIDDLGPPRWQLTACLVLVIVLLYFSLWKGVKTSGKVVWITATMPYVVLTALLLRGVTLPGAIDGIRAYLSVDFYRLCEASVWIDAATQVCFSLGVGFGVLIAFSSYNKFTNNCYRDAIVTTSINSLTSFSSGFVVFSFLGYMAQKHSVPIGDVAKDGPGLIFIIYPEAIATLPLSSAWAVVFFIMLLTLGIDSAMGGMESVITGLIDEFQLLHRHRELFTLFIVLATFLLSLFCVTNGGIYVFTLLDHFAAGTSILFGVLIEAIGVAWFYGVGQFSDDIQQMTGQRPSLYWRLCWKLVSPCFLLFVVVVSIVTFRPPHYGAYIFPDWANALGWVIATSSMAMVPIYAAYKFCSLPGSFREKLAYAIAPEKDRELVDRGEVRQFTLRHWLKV
Procedure: as §4, §5, §6

[9] = target: T3, recombinant human norepinephrine (hNET) transporter (Homo sapiens, UniProt P23975); assay: Inhibition of [3H]neurotransmitter uptake, hNET; type: cell-based
T3 construct: expressed in transfected cells; host or cells: HEK cells expressing hNET
T3 sequence (P23975 whole entry): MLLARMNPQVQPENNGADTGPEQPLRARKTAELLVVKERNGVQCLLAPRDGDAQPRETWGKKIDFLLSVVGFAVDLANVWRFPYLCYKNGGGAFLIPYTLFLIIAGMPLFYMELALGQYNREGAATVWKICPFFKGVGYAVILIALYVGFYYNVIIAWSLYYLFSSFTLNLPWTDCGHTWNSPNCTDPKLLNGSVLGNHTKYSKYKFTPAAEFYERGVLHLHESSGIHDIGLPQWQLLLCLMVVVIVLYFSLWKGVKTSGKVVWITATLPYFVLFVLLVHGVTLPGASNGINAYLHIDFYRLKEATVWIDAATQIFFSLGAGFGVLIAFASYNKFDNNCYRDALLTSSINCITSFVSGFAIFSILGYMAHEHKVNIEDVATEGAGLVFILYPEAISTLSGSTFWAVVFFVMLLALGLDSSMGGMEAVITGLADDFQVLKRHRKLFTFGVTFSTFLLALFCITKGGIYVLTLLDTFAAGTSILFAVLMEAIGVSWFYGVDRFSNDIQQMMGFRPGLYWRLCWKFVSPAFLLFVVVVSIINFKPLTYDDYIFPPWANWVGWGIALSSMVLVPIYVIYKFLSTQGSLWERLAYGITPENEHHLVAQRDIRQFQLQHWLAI
Procedure: as §4, §5, §6

SMILES: Fc1ccc(C(c2ccc(F)cc2)N2CCN(CCCNc3ccnc4cc(Cl)ccc34)CC2)cc1 [RCQ_37F2]
IC50 [1]: 15 nM | IC50 [2]: 19 nM | Cytotoxicity [3]: 4100 nM

SMILES: C=C[C@H]1C[N@@]2CC[C@H]1C[C@H]2[C@H](O)c1ccnc2ccc(OC)cc12 [Quinine]
Drug susceptibility, strain D6 (P. falciparum strain D6): S | Drug susceptibility, strain FCR3 [4]: S | Drug susceptibility, strain W2 (P. falciparum strain W2): R | Drug susceptibility, strain Dd2 (P. falciparum strain Dd2): R | Drug susceptibility, strain TM91C235 [5]: R

SMILES: CN(CCCN1c2ccccc2CCc2ccccc21)CCNc1ccnc2cc(Cl)ccc12 [RCQ_33]
IC50 [1]: 8.1 nM | IC50 [2]: 9.3 nM | IC50 [6]: 9.3 nM | Cytotoxicity [3]: 1400 nM

SMILES: Clc1ccc2c(NCCN3CCCN(C(c4ccccc4)c4ccccc4)CC3)ccnc2c1 [RCQ_36]
IC50 [1]: 11.7 nM | IC50 [2]: 98 nM | Cytotoxicity [3]: 5300 nM | cytotoxicity values [3]: 5300 nM

SMILES: Clc1ccc(C(c2ccccc2)N2CCN(CCCNc3ccnc4cc(Cl)ccc34)CC2)cc1 (stereo not shown) [RCQ_35]
IC50 [1]: 4 nM | IC50 [2]: 6 nM | IC50 [6]: 4 nM | Cytotoxicity [3]: 800 nM

SMILES: Clc1ccc2c(NCCCNCCCCN(Cc3ccccc3)Cc3ccccc3)ccnc2c1 [RCQ_26]
IC50 [1]: 7.6 nM | IC50 [2]: 10.6 nM

SMILES: Clc1ccc2c(NCCCNCCN(c3ccccc3)c3ccccc3)ccnc2c1 [RCQ_05(desMe)]
IC50 [1]: 36 nM | IC50 [2]: 27 nM

SMILES: Clc1ccc2c(NCCCNCCCN(Cc3ccccc3)Cc3ccccc3)ccnc2c1 [RCQ_22]
IC50 [1]: 45 nM | IC50 [2]: 79 nM | Cytotoxicity [3]: 700 nM | cytotoxicity values [3]: 700 nM

SMILES: Clc1ccc(C(c2ccccc2)N2CCN(CCNc3ccnc4cc(Cl)ccc34)CC2)cc1 (stereo not shown) [RCQ_32]
IC50 [1]: 2.6 nM | IC50 [2]: 3.4 nM | IC50 [6]: 3.4 nM | Cytotoxicity [3]: 1400 nM

SMILES: Clc1ccc2c(NCCCN3CCC(=C4c5ccccc5C=Cc5ccccc54)CC3)ccnc2c1 [RCQ_42]
IC50 [1]: 2.1 nM | IC50 [2]: 1.8 nM | Cytotoxicity [3]: 1100 nM

IC50 [7]: 1160 nM | IC50 [8]: 1400 nM | IC50 [9]: 660 nM
SMILES: Clc1ccc2c(NCCCN3CCCN(C(c4ccccc4)c4ccccc4)CC3)ccnc2c1 [RCQ_73]
IC50 [1]: 4.8 nM | IC50 [2]: 4.1 nM | Cytotoxicity [3]: 700 nM | cytotoxicity values [3]: 700 nM

SMILES: COc1ncnc(NS(=O)(=O)c2ccc(N)cc2)c1OC [Sulfadoxine]
Drug susceptibility, strain D6 (P. falciparum strain D6): S | Drug susceptibility, strain FCR3 [4]: S | Drug susceptibility, strain W2 (P. falciparum strain W2): R | Drug susceptibility, strain Dd2 (P. falciparum strain Dd2): S | Drug susceptibility, strain TM91C235 [5]: R

SMILES: Clc1ccc2c(NCCN3CCCN(C4c5ccccc5-c5ccccc54)CC3)ccnc2c1 [RCQ_72]
IC50 [1]: 9.2 nM | IC50 [2]: 9.6 nM | Cytotoxicity [3]: 2500 nM

SMILES: CCN1CCN(c2ccnc3cc(Cl)ccc23)CC1 [Q_38a]
IC50 [1]: 280 nM | IC50 [2]: 400 nM

SMILES: OC(c1cc(C(F)(F)F)nc2c(C(F)(F)F)cccc12)C1CCCCN1 (stereo not shown) [Mefloquine]
Drug susceptibility, strain D6 (P. falciparum strain D6): S/R | Drug susceptibility, strain FCR3 [4]: S | Drug susceptibility, strain W2 (P. falciparum strain W2): S | Drug susceptibility, strain Dd2 (P. falciparum strain Dd2): R | Drug susceptibility, strain TM91C235 [5]: R

IC50 [7]: 965 nM | IC50 [8]: 1080 nM | IC50 [9]: 550 nM
SMILES: Clc1ccc2c(NCCCN3CCCN(C4c5ccccc5-c5ccccc54)CC3)ccnc2c1 [RCQ_76]
IC50 [1]: 21.1 nM | IC50 [2]: 15.3 nM | Cytotoxicity [3]: 2500 nM

SMILES: Clc1ccc2c(N3CCN(CCN(Cc4ccccc4)Cc4ccccc4)CC3)ccnc2c1 [RCQ_351]
IC50 [1]: 141 nM | IC50 [2]: 164 nM

SMILES: CC1(C)N=C(N)N=C(N)N1c1ccc(Cl)cc1 [Cycloguanil]
Drug susceptibility, strain D6 (P. falciparum strain D6): S | Drug susceptibility, strain FCR3 [4]: S | Drug susceptibility, strain W2 (P. falciparum strain W2): R | Drug susceptibility, strain Dd2 (P. falciparum strain Dd2): S

SMILES: Clc1ccc(C(c2ccccc2)N2CCCN(CCCNc3ccnc4cc(Cl)ccc34)CC2)cc1 (stereo not shown) [RCQ_74]
IC50 [1]: 15 nM | IC50 [2]: 9.8 nM | Cytotoxicity [3]: 900 nM

SMILES: Clc1ccc2c(NCCCN3CCN(C(c4ccccc4)c4ccccc4)CC3)ccnc2c1 [RCQ_34]
IC50 [1]: 2.4 nM | IC50 [2]: 3.7 nM | IC50 [6]: 2.5 nM | Cytotoxicity [3]: 1100 nM
